Measured values published in patent US4524147A, “Uracil derivatives, process for preparing same, and pharmaceutical compositions comprising same” (Mitsui Toatsu Chemicals, Incorporated, priority 1981, dated 1985).
Structures can show the parent of a compound that is named as a salt.

Columns and labels:
[1] = Test for acute oral toxicity; parameters: species or system mice (ddY strain; conditions: mouse, in vivo, 5 male ddY mice per group, observed for 7 days, estimated
Procedure: The toxicity of the active ingredients of some typical pharmaceutical composition of the present invention was examined in the following Evaluation Test 3.
[Test for acute oral toxicity]
Each of the compounds used in Evaluation Tests 1 and 2 was dissolved or suspended in physiological saline and administered orally to a group of 5 male mice of the ddY strain. The LD50 value of the compound was estimated by observing these animals for 7 days after administration.

delayed hypersensitivity = assay: Augmentation test of delayed hypersensitivity (picryl chloride, mouse ear thickness); assay type: in vivo, mice (ICR strain, male); conditions: 50 mg/kg oral, simultaneously with sensitization; 24 hours after challenge; average of 16 measurements of 8 animals; * P<0.05 vs control
From the text: These facts are more fully explained with reference to the following evaluation tests. A variety of experimental systems are being commonly used to test immunomodulatory activity in animals. Of such tests, the most typical one is an augmentation test of delayed hypersensitivity as shown below. […] L., and Ptak, W. "Contact and delayed hypersensitivity in the mouse I. Active sensitization and passive transfer," Immunology, 15, 405-416(1968)). In the following Evaluation Test 1, this experimental system was used to carry out an augmentation test of delayed hypersensitivity. [Augmentation test of delayed hypersensitivity] Male mice of the ICR strain, weighing approximately 30 g, were used in groups of eight. These animals were sensitized by shaving the hair on the abdomen and applying thereto a 3% solution of picryl chloride in a 4:1 mixture of olive oil and acetone. Simultaneously with this sensitization, each of two compounds of the present invention was dissolved or suspended in physiological saline containing 0.2% carboxymethyl cellulose and administered orally to the animals in a dose of 50 mg per kg of body weight. A control group was treated solely with physiological saline containing 0.2% carboxymethyl cellulose. Seven days after sensitization, delayed hypersensitivity was challenged by wrapping the tips of a forceps with pieces of felt, impregnating the felt with olive oil containing 1% picryl chloride, and pinching both ears of each animal. The thicknesses of the ears were measured before and 24 hours after the challenge, and the calculated percent increase of ear thickness (the average of 16 measurements made of the ears of 8 animals) is shown in Table 1. For purposes of comparison, the results of an experiment with Lavamisole hydrochloride are also given. The test results thus obtained were subjected to statistical analysis using the F.t test. The values marked with an asterisk (*) indicate that, when they were compared with the value of the control group, the differences were significant at P<0.05.

adjuvant arthritis = assay: Adjuvant arthritis test (hind paw swelling); assay type: in vivo, rats (SD strain, male); conditions: 5 mg/kg subcutaneous, nine times before and after injection of adjuvant; left hind paw volume; * P<0.05 vs control
Procedure: The adjuvant arthritis induced in rats by injection of a tubercle bacillus adjuvant is frequently used as an experimental model for rheumatoid arthritis in man.
Although the mechanism by which this phenomenon occurs is not completely elucidated, cellular immunity is known to play an important role. Employing this well-known adjuvant arthritis test, the same compounds of the present invention were further examined for immunomodulatory activity.
[Adjuvant arthritis test]
An adjuvant was prepared by suspending 0.4 mg of killed and dried cells of the human type tubercle bacillus (Mycobacterium tuberclosis) in 0.1 ml of liquid paraffin, and inoculated intradermally into the right hind paw of 8-weeks-old male rats of the SD strain. Each of the two compounds of the present invention was subcutaneously administered nine times before and after injection of the adjuvant. These compounds were dissolved or suspended in physiological saline containing 0.2% carboxymethyl cellulose and administered in an amount of 5 mg per kg of body weight. The volume of the left hind paw of each animal was daily measured from the day of inoculation of the adjuvant to the end of the test, and the calculated percent inhibition of swelling is shown in Table 2. For purposes of comparison, the results of an experiment with Levamisole hydrochloride are also given. The test results thus obtained were subjected to statistical analysis using the F.t test. The values marked with an asterisk (*) indicate that, when they were compared with the value of a control group treated solely with physiological saline containing 0.2% carboxymethyl cellulose, the differences were significant at P<0.05.

| Compound | LD50 at 168 h [1] [mg/kg] | Percent increase of ear thickness (delayed hypersensitivity) [%] | Percent inhibition of swelling as compared with control group (average of 16-20 days) (adjuvant arthritis) [%] |
| --- | --- | --- | --- |
| c1ccc([C@H]2CN3CCSC3=N2)cc1 [Levamisole hydrochloride, reference compound] | 200 to 300 | 31.2 | 19.8 |
| O=C(C(=O)n1ccc(=O)[nH]c1=O)n1ccc(=O)[nH]c1=O [drawing 4] | – | 33.9 | – |
| Cc1cn(C(=O)C(=O)n2cc(C)c(=O)[nH]c2=O)c(=O)[nH]c1=O [drawing 5] | – | 28.6 | – |
| O=C(C(=O)n1ccc(=O)[nH]c1=O)n1ccc(=O)[nH]c1=O [drawing 6] | – | – | 41.4 |
| Cc1cn(C(=O)C(=O)n2cc(C)c(=O)[nH]c2=O)c(=O)[nH]c1=O [drawing 7] | – | – | 29.9 |
